Laboratory results: US4230712A, “7-Methyl-8β-lower alkyl or 7-methyl-8-lower alkyl B/C cis or trans morphinan-6-one compounds and therapeutic method of treating pain employing them” (Miles Laboratories, Inc., priority 1978, dated 1980)
Counter-ions that a name gives are not always drawn. Like-named read-outs stand apart in the source and are kept apart here.

What was measured:
[1] = charcoal meal test with attempted naloxone reversal; type: in vivo
mice = test: acetic acid mouse writhing test (analgesic effect, s.c.); type: in vivo, male CD-1 mice; conditions: for ED50: mouse acetic acid writhing, s.c., dose reducing the number of writhes by 50%, IA @ dose = inactive at that dose
Description: (A) Analgesic effects upon mice (acetic acid writhing test).
TEST A. ACETIC ACID MOUSE WRITHING TEST
The analgesic effects of test compounds were determined in mice by use of the acetic acid writhing test described by B. J. R. Whittle, Brit. J. Pharmacol., 22:246 (1964). In this test at least three groups of five male CD-1 mice (18-22 g) each were given subcutaneous doses of the test drug dissolved in either distilled water or distilled water acidified with HCl depending on the solubility of the compound. In all cases, 0.4 milliliter of a 0.5% V/V acetic acid in distilled water solution was administered intraperitoneally 15 minutes post drug. The number of writhes in a 20 min. interval beginning 5 minutes after the acetic acid injection were determined and compared with the number of writhes in control groups which had received only acetic acid.
Percent inhibition of writhing was calculated as: [formula]
The ED50 dose, i.e., the dose required to reduce the number of writhes by 50%, was determined graphically from a plot of % inhibition as a probit versus log dose. Confidence limits of 95% were calculated on the basis of those results falling in the range 16-84% inhibition. See Litchfield, J. T. and Wilcoxon, F., J. Pharmacol. Exp. Ther., 96, 99-113, (1949).

rats = test: narcotic antagonist activity, modified rat tail flick test against morphine; type: in vivo, male albino Wistar rats; set-up: AD50: unit not given here; conditions: for AD50: rat tail flick, dose inhibiting the morphine (ED80 dose s.c.) effect by 50%, IA @ dose = inactive at that dose
Description: (B) Narcotic antagonist activity in rats (modified rat tail flick test).
TEST B. EVALUATION OF NARCOTIC ANTAGONIST ACTIVITY
The narcotic antagonist effects of test compounds were determined by a modification of the rat tail flick procedure of Harris and Pierson (J. Pharmacol. Exp. Ther. 143:141 [1964]).
Male albino Wistar rats (100-120 g) were used for this study. A rat's tail is so placed so as to cover a photocell. Heat is applied by a lamp in a reflector with a timer being connected to the lamp and photocell so that the timer goes on when the light is turned on and is turned off when the photocell is uncovered. A rheostat, incorporated into a heating lamp is used to adjust the intensity of the light falling on the tail of the rat such that the rat's control reaction time is from two to four seconds. Animals with a control reaction time outside this range are rejected. The rheostat adjustment is made only if a significant proportion (more than 2 out of every 10 rats) of the reaction times are outside the range of two to four seconds. Groups of five rats were used each time, and two control times were determined at 60 and 30 minutes prior to subcutaneous injection of the drug.
Thirty minutes after the last control run the test drug was given intraperitoneally. This was followed ten minutes later by an ED80 dose of morphine subcutaneously. The animals were retested at 20 minutes after the morphine injection. Control animals were given vehicle and morphine only. The data were calculated as follows: [formula]
The data were plotted on log-probit paper and AD50 values, i.e., the dose required to inhibit the morphine effect by 50% within 95% confidence limits, were determined by the method of Litchfield and Wilcoxon.

Row | Compound | action in charcoal meal test upon attempted naloxone reversal ([1]; attempted reversal with naloxone, Hydrochloride) | duration of action suggested by charcoal meal test ([1]; inferred from novel action upon attempted naloxone reversal) | ED50 (mice; sc, read-out: ED50) [mg/kg] | AD50 (rats) | analgesic activity (mice; in words) | ED50 (mice) | narcotic antagonist activity (rats; in words)
1 | C[C@H]1C[C@H]2[C@H]3Cc4ccc(O)cc4[C@@]2(CCN3CC2CC2)CC1=O.Cl [TR-5177, 17-Cyclopropylmethyl-3-hydroxy-7α-methylmorphinan-6-one Hydrochloride] | novel action in charcoal meal test upon attempted naloxone reversal | may have a longer duration of action than would be expected | 0.87 | 5.2 | – | – | –
2 | CC[C@H]1[C@@H]2[C@H]3Cc4ccc(O)cc4[C@@]2(CCN3CC2CCC2)CC(=O)[C@@H]1C [TR-5370, 17-Cyclobutylmethyl-8α-ethyl-3-hydroxy-7β-methyl-isomorphinan-6-one Hydrochloride] | – | – | – | > 10 | essentially inactive | IA @ 10 | essentially inactive
